Experimental data from ChEMBL document CHEMBL1201862, “PubChem BioAssay data set” (2004).
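96-well plates; 48 h exposure; 5 concentrations. Endpoints by linear interpolation between flanking doses. Not reached: highest tested concentration assigned. GI50 = concentration required for 50% inhibition of growth.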 The source made the active and inactive calls. No stated cut-off is given here; in the data, active = GI50 up to about 1.1 µM and inactive = higher.

Columns and labels:
Experiment in all cases: NCI-60 cell line screen, 48 h
ACHN = test system: ACHN
OVCAR-4 = test system: OVCAR-4
LOX IMVI = test system: LOX IMVI
A549 = test system: A549
DLD-1 = test system: DLD-1
OVCAR-8 = test system: OVCAR-8
Malme-3M = test system: Malme-3M
UO-31 = test system: UO-31
HOP-62 = test system: HOP-62
KM-20L2 = test system: KM-20L2
NCI-H23 = test system: NCI-H23
SF-268 = test system: SF-268
RXF 393 = test system: RXF 393
SK-MEL-5 = test system: SK-MEL-5
SNB-19 = test system: SNB-19
M14 = test system: M14
MOLT-4 = test system: MOLT-4
CCRF-CEM = test system: CCRF-CEM
HT-29 = test system: HT-29
NCI-H522 = test system: NCI-H522
COLO 205 = test system: COLO 205
UACC-257 = test system: UACC-257
LXFL 529 = test system: LXFL 529
HCT-15 = test system: HCT-15
UACC-62 = test system: UACC-62
K562 = test system: K562
EKVX = test system: EKVX
HCC 2998 = test system: HCC 2998
CAKI-1 = test system: CAKI-1
OVCAR-3 = test system: OVCAR-3
SK-MEL-2 = test system: SK-MEL-2
SF-539 = test system: SF-539
RPMI-8226 = test system: RPMI-8226
HCT-116 = test system: HCT-116
SNB-75 = test system: SNB-75
KM12 = test system: KM12
SW-620 = test system: SW-620
SN12C = test system: SN12C
M19-MEL = test system: M19-MEL
U-251 = test system: U-251
DMS-114 = test system: DMS-114
IGROV-1 = test system: IGROV-1
SF-295 = test system: SF-295
786-0 = test system: 786-0
SR = test system: SR
DMS-273 = test system: DMS-273
NCI-H460 = test system: NCI-H460
TK-10 = test system: TK-10

How did the GI50 (ACHN) turn out when `Cc1ccc(S(=O)(=O)NNS(C)(=O)=O)cc1` was run?
The GI50 was > 100 µM (inactive).

And the GI50 (OVCAR-4)?
The GI50 was > 100 µM (inactive).

And the GI50 (LOX IMVI)?
Its GI50 is > 100 µM (inactive).

And the GI50 (A549)?
Its GI50 is > 100 µM (inactive).

What about the GI50 (DLD-1) of the same molecule?
The GI50 was > 100 µM (inactive).

And the GI50 (OVCAR-8)?
Its GI50 is > 100 µM (inactive).

What about the GI50 (Malme-3M) of the same molecule?
Its GI50 is > 100 µM (inactive).

And the GI50 (UO-31)?
The GI50 was > 100 µM (inactive).

And the GI50 (HOP-62)?
Its GI50 is > 100 µM (inactive).

And the GI50 (KM-20L2)?
Its GI50 is > 100 µM (inactive).

What about the GI50 (NCI-H23) of the same molecule?
Its GI50 is > 100 µM (inactive).

What about the GI50 (SF-268) of the same molecule?
Its GI50 is > 100 µM (inactive).

And the GI50 (RXF 393)?
Its GI50 is > 100 µM (inactive).

What about the GI50 (SK-MEL-5) of the same molecule?
The GI50 was > 100 µM (inactive).

And the GI50 (SNB-19)?
The GI50 was > 100 µM (inactive).

What about the GI50 (M14) of the same molecule?
The GI50 was > 100 µM (inactive).

What about the GI50 (MOLT-4) of the same molecule?
The GI50 was > 100 µM (inactive).

What about the GI50 (CCRF-CEM) of the same molecule?
Its GI50 is > 100 µM (inactive).

And the GI50 (HT-29)?
The GI50 was > 100 µM (inactive).

What about the GI50 (NCI-H522) of the same molecule?
The GI50 was > 100 µM (inactive).

And the GI50 (COLO 205)?
Its GI50 is > 100 µM (inactive).

What about the GI50 (UACC-257) of the same molecule?
Its GI50 is > 100 µM (inactive).

What about the GI50 (LXFL 529) of the same molecule?
Its GI50 is > 100 µM (inactive).

What about the GI50 (HCT-15) of the same molecule?
Its GI50 is > 100 µM.

And the GI50 (UACC-62)?
Its GI50 is > 100 µM (inactive).

What about the GI50 (K562) of the same molecule?
Its GI50 is > 100 µM (inactive).

What about the GI50 (EKVX) of the same molecule?
Its GI50 is > 100 µM (inactive).

What about the GI50 (HCC 2998) of the same molecule?
Its GI50 is > 100 µM (inactive).

And the GI50 (CAKI-1)?
Its GI50 is > 100 µM (inactive).

And the GI50 (OVCAR-3)?
Its GI50 is > 100 µM (inactive).

And the GI50 (SK-MEL-2)?
Its GI50 is > 100 µM (inactive).

What about the GI50 (SF-539) of the same molecule?
The GI50 was > 100 µM (inactive).

And the GI50 (RPMI-8226)?
Its GI50 is > 100 µM (inactive).

What about the GI50 (HCT-116) of the same molecule?
Its GI50 is > 100 µM (inactive).

What about the GI50 (SNB-75) of the same molecule?
The GI50 was > 100 µM (inactive).

What about the GI50 (KM12) of the same molecule?
Its GI50 is > 100 µM (inactive).

What about the GI50 (SW-620) of the same molecule?
The GI50 was > 100 µM (inactive).

What about the GI50 (SN12C) of the same molecule?
The GI50 was > 100 µM (inactive).

What about the GI50 (M19-MEL) of the same molecule?
Its GI50 is > 100 µM (inactive).

And the GI50 (U-251)?
Its GI50 is > 100 µM (inactive).

What about the GI50 (DMS-114) of the same molecule?
The GI50 was > 100 µM (inactive).

What about the GI50 (IGROV-1) of the same molecule?
Its GI50 is > 100 µM (inactive).

And the GI50 (SF-295)?
Its GI50 is > 100 µM (inactive).

What about the GI50 (786-0) of the same molecule?
The GI50 was > 100 µM (inactive).

And the GI50 (SR)?
Its GI50 is > 100 µM (inactive).

And the GI50 (DMS-273)?
Its GI50 is > 100 µM (inactive).

What about the GI50 (NCI-H460) of the same molecule?
The GI50 was > 100 µM (inactive).

What about the GI50 (TK-10) of the same molecule?
Its GI50 is > 100 µM (inactive).
